In experiment [1] the test system is PLD activity in T24 cells. In words: In vivo PLD activity in T24 bladder cancer cells. The experiment is classed as cell-based, human. The following applies: honokiol 20 μM, 4 hr. Here is the method: In FIG. 17A, T24 and Calu1 cells (obtained from the American Type Culture Collection) were plated in DMEM containing 10% serum for 48 hr and then shifted to either 10% serum or 0.5% serum overnight as indicated. Honokiol (20 μM) or control ethanol was then added for 4 hr as indicated. [^3H]-Myristate was added with the honokiol. After 4 hr, BtOH (0.7%) was added for 20 min, at which time the cells were harvested and the level of phosphatidyl-BtOH (P-Bt) was determined as in FIGS. 12A-C. The experiments shown are representative of at least two independent experiments. In FIG. 17B, T24 and Calu-1 cells were plated in DMEM with 10% serum for 48 hr then changed to DMEM containing either 10% or 0.5% serum overnight as indicated. […]
For in vivo PLD activity, cells were plated in 60 mm culture dishes in DMEM with 10% serum at a density that would allow them to grow to about 80% confluence after 2 days, then cells were shifted to DMEM containing 0.5% or 10% serum as indicated in the figure legends overnight. […] Briefly, PLD activity was measured by the release of [methyl-^3H] choline from [choline-methyl-^3H]dipalmitoyl-phosphatidylcholine. […] Free [methyl-^3H] choline was separated from precipitated lipids and proteins by centrifugation and was analyzed by liquid scintillation counting. […]

The test system of a further experiment is Calu-1 cells. In words: Cell viability and PARP cleavage in Calu-1 cells. Format: cell-based, human. The following applies: honokiol 20 μM, 0.5% serum. Here is the method: In FIG. 17A, T24 and Calu1 cells (obtained from the American Type Culture Collection) were plated in DMEM containing 10% serum for 48 hr and then shifted to either 10% serum or 0.5% serum overnight as indicated. Honokiol (20 μM) or control ethanol was then added for 4 hr as indicated. [^3H]-Myristate was added with the honokiol. After 4 hr, BtOH (0.7%) was added for 20 min, at which time the cells were harvested and the level of phosphatidyl-BtOH (P-Bt) was determined as in FIGS. 12A-C. The experiments shown are representative of at least two independent experiments. In FIG. 17B, T24 and Calu-1 cells were plated in DMEM with 10% serum for 48 hr then changed to DMEM containing either 10% or 0.5% serum overnight as indicated. Honokiol (20 μM) or control ethanol was then added either at the time of changing media (24 hr), or 4 hr before harvesting as in FIGS. 14A-E, at which time the cells were examined for cell viability or PARD cleavage. […]
Cell viability was determined by trypan blue exclusion. […] After 10 min, trypan blue uptake (dead cells) was determined by counting on a hemocytometer. Apoptosis was evaluated by examination of cleavage of the caspase 3 substrate PARP as described previously (Chen et al., “Alternative Phospholipase D/mTOR Survival Signal in Human Breast Cancer Cells,” Oncogene 24:672-9 (2005), which is hereby incorporated by reference in its entirety). […]

For `C=CCc1ccc(O)c(-c2ccc(O)c(CC=C)c2)c1` [honokiol, Honokiol], the “stress-induced PLD activity” value in experiment [1] (0.5% serum) is recorded as “suppressed”. For the same compound, the “PLD activity observed in the presence of serum” value in experiment [1] (10% serum) was “little effect”. In the experiment on Calu-1 cells, the PARP cleavage result is “induced” and the cell death entry is on record as “induced”.

Source of the values: patent US20120301895A1, “METHODS OF MODULATING BINDING OF SON OF SEVENLESS TO PHOSPHATIDIC ACID AND IDENTIFYING COMPOUNDS THAT MODULATE SUCH BINDING” (THE RESEARCH FOUNDATION OF STATE UNIVERSITY OF NEW YORK, priority 2007, published 2012).
